Measurements: PubChem BioAssay (NCI)
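Here, GI50 denotes the concentration required for 50% inhibition of growth. TGI is the concentration that stops growth completely.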

Legend:
Assay in all cases: DTP human tumour cell line panel, 384-well format
HOP-92 NSCLC = system: HOP-92 NSCLC
HT29 colon = system: HT29 colon
HL-60(TB) leukemia = system: HL-60(TB) leukemia
NCI-H226 lung = system: NCI-H226 lung
SF-295 CNS = system: SF-295 CNS
UACC-257 melanoma = system: UACC-257 melanoma
HOP-62 NSCLC = system: HOP-62 NSCLC
PC-3 prostate = system: PC-3 prostate
OVCAR-5 ovarian = system: OVCAR-5 ovarian
SF-268 CNS = system: SF-268 CNS
COLO 205 colon = system: COLO 205 colon
SK-MEL-2 melanoma = system: SK-MEL-2 melanoma
TK-10 renal = system: TK-10 renal
SNB-75 CNS = system: SNB-75 CNS
MDA-MB-435 melanoma = system: MDA-MB-435 melanoma
RXF 393 renal = system: RXF 393 renal
OVCAR-8 ovarian = system: OVCAR-8 ovarian
OVCAR-4 ovarian = system: OVCAR-4 ovarian
SN12C renal = system: SN12C renal
HCT-116 colon = system: HCT-116 colon
MDA-MB-468 breast = system: MDA-MB-468 breast
MCF7 breast = system: MCF7 breast
IGROV1 ovarian = system: IGROV1 ovarian
NCI-H522 lung = system: NCI-H522 lung
SK-OV-3 ovarian = system: SK-OV-3 ovarian
NCI-H23 lung = system: NCI-H23 lung
NCI-H322M lung = system: NCI-H322M lung
SW-620 colon = system: SW-620 colon
KM12 colon = system: KM12 colon
786-0 renal = system: 786-0 renal
A549 NSCLC = system: A549 NSCLC
SR leukemia = system: SR leukemia
NCI-H460 NSCLC = system: NCI-H460 NSCLC
SNB-19 CNS = system: SNB-19 CNS
T-47D breast = system: T-47D breast
ACHN renal = system: ACHN renal
K-562 leukemia = system: K-562 leukemia
UACC-62 melanoma = system: UACC-62 melanoma
U251 glioblastoma = system: U251 glioblastoma
M14 melanoma = system: M14 melanoma
UO-31 renal = system: UO-31 renal
EKVX NSCLC = system: EKVX NSCLC
HS 578T breast = system: HS 578T breast
CAKI-1 renal = system: CAKI-1 renal
SK-MEL-28 melanoma = system: SK-MEL-28 melanoma
DU-145 prostate = system: DU-145 prostate
OVCAR-3 ovarian = system: OVCAR-3 ovarian
BT-549 breast = system: BT-549 breast
MOLT-4 leukemia = system: MOLT-4 leukemia
HCT-15 colon = system: HCT-15 colon
MDA-MB-231 breast = system: MDA-MB-231 breast
A498 renal = system: A498 renal
MALME-3M melanoma = system: MALME-3M melanoma
SK-MEL-5 melanoma = system: SK-MEL-5 melanoma
SF-539 CNS = system: SF-539 CNS

Cc1cc(C)c(CNC(=O)c2cc(Cl)c3c(c2C)O[C@@](C)(C2CCC(N(C)C)CC2)O3)c(=O)[nH]1 (stereo not given in full)
GI50 (HOP-92 NSCLC): 40 µM | TGI (HOP-92 NSCLC): > 100 µM | GI50 (HT29 colon): 21.3 µM | TGI (HT29 colon): 48.7 µM | GI50 (HL-60(TB) leukemia): 15.4 µM | TGI (HL-60(TB) leukemia): 37.6 µM | GI50 (NCI-H226 lung): 44.3 µM | TGI (NCI-H226 lung): > 100 µM | GI50 (SF-295 CNS): 35.1 µM | TGI (SF-295 CNS): > 100 µM | GI50 (UACC-257 melanoma): 22.7 µM | TGI (UACC-257 melanoma): 51.8 µM | GI50 (HOP-62 NSCLC): > 100 µM | TGI (HOP-62 NSCLC): > 100 µM | GI50 (PC-3 prostate): 56.3 µM | TGI (PC-3 prostate): > 100 µM | GI50 (OVCAR-5 ovarian): > 100 µM | TGI (OVCAR-5 ovarian): > 100 µM | GI50 (SF-268 CNS): 45.4 µM | TGI (SF-268 CNS): > 100 µM | GI50 (COLO 205 colon): > 100 µM | TGI (COLO 205 colon): > 100 µM | GI50 (SK-MEL-2 melanoma): 17.4 µM | TGI (SK-MEL-2 melanoma): 45.6 µM | GI50 (TK-10 renal): 33.4 µM | TGI (TK-10 renal): > 100 µM | GI50 (SNB-75 CNS): 18.6 µM | TGI (SNB-75 CNS): 60.3 µM | GI50 (MDA-MB-435 melanoma): 73.4 µM | TGI (MDA-MB-435 melanoma): > 100 µM | GI50 (RXF 393 renal): 7.55 µM | TGI (RXF 393 renal): 21.2 µM | GI50 (OVCAR-8 ovarian): > 100 µM | TGI (OVCAR-8 ovarian): > 100 µM | GI50 (OVCAR-4 ovarian): > 100 µM | TGI (OVCAR-4 ovarian): > 100 µM | GI50 (SN12C renal): 76.6 µM | TGI (SN12C renal): > 100 µM | GI50 (HCT-116 colon): 38.6 µM | TGI (HCT-116 colon): > 100 µM | GI50 (MDA-MB-468 breast): 24.9 µM | TGI (MDA-MB-468 breast): 73.2 µM | GI50 (MCF7 breast): 44.9 µM | TGI (MCF7 breast): > 100 µM | GI50 (IGROV1 ovarian): 51 µM | TGI (IGROV1 ovarian): > 100 µM | GI50 (NCI-H522 lung): > 100 µM | TGI (NCI-H522 lung): > 100 µM | GI50 (SK-OV-3 ovarian): > 100 µM | TGI (SK-OV-3 ovarian): > 100 µM | GI50 (NCI-H23 lung): 46.8 µM | TGI (NCI-H23 lung): > 100 µM | GI50 (NCI-H322M lung): > 100 µM | TGI (NCI-H322M lung): > 100 µM | GI50 (SW-620 colon): > 100 µM | TGI (SW-620 colon): > 100 µM | GI50 (KM12 colon): 59.4 µM | TGI (KM12 colon): > 100 µM | GI50 ([…]-0 renal): 16.1 µM | TGI (786-0 renal): 32 µM | GI50 (A549 NSCLC): 76.2 µM | TGI (A549 NSCLC): > 100 µM | GI50 (SR leukemia): 19.8 µM | TGI (SR leukemia): 34.1 µM | GI50 (NCI-H460 NSCLC): 37.2 µM | TGI (NCI-H460 NSCLC): > 100 µM | GI50 (SNB-19 CNS): > 100 µM | TGI (SNB-19 CNS): > 100 µM | GI50 (T-47D breast): > 100 µM | TGI (T-47D breast): > 100 µM | GI50 (ACHN renal): > 100 µM | TGI (ACHN renal): > 100 µM | GI50 (K-562 leukemia): 14.9 µM | TGI (K-562 leukemia): 30.5 µM | GI50 (UACC-62 melanoma): 32.6 µM | TGI (UACC-62 melanoma): > 100 µM | GI50 (U251 glioblastoma): 72.9 µM | TGI (U251 glioblastoma): > 100 µM | GI50 (M14 melanoma): 38.2 µM | TGI (M14 melanoma): > 100 µM | GI50 (UO-31 renal): 63.1 µM | TGI (UO-31 renal): > 100 µM | GI50 (EKVX NSCLC): 48.9 µM | TGI (EKVX NSCLC): > 100 µM | GI50 (HS 578T breast): 13.8 µM | TGI (HS 578T breast): 32.7 µM | GI50 (CAKI-1 renal): 19.1 µM | TGI (CAKI-1 renal): 39.2 µM | GI50 (SK-MEL-28 melanoma): 83 µM | TGI (SK-MEL-28 melanoma): > 100 µM | GI50 (DU-145 prostate): 81.1 µM | TGI (DU-145 prostate): > 100 µM | GI50 (OVCAR-3 ovarian): 72 µM | TGI (OVCAR-3 ovarian): > 100 µM | GI50 (BT-549 breast): 19 µM | TGI (BT-549 breast): 45 µM | GI50 (MOLT-4 leukemia): 29.2 µM | TGI (MOLT-4 leukemia): 77.5 µM | GI50 (HCT-15 colon): 71.1 µM | TGI (HCT-15 colon): > 100 µM | GI50 (MDA-MB-231 breast): > 100 µM | TGI (MDA-MB-231 breast): > 100 µM | GI50 (A498 renal): 20.4 µM | TGI (A498 renal): 37.1 µM | GI50 (MALME-3M melanoma): 25.1 µM | TGI (MALME-3M melanoma): 56.9 µM | GI50 (SK-MEL-5 melanoma): 17.6 µM | TGI (SK-MEL-5 melanoma): 37.2 µM | GI50 (SF-539 CNS): 35 µM | TGI (SF-539 CNS): > 100 µM
